Source: patent US20250268904A1 (priority 2020, published 2025)

How the values were obtained:
[1] = system: Vero E6 cells; format: cell-based, African Green monkey
[2] = system: SARS-CoV-2
[3] = in vitro; settings: African green monkey
[4] = system: SARS-CoV-2; assay: microbe, parasite or virus in culture; settings: Severe acute respiratory syndrome coronavirus 2, Vero C1008, read-out: IC50 inhibition of SARS-CoV-2 infection
[5] = system: U2OS osteosarcoma cells; assay: Induction of vacuoles (enlarged lysosomes); format: cell-based; settings: within 4 hours
Experimental: (§1) The WX8-family of PIKfyve specific inhibitors disrupts multiple events in lysosome homeostasis (Table 1): • prevent lysosome fission without preventing homotypic lysosome fusion, thereby causing cytoplasmic vacuolization (enlarged lysosomes). Cytoplasmic vacuolization is evident within 30 minutes and reversible for up to 24-48 hours (1Vacuoles). • inhibit trafficking of molecules into lysosomes, thereby reducing lysosomal activity • inhibit maturation of lysosome cathepsins, thereby reducing lysosomal activity • disrupt endosome trafficking, thereby reducing cellular uptake of extracellular materials • inhibit cell proliferation (^3Proliferation) • disrupt autophagy by preventing heterotypic fusion of lysosomes with autophagosomes (^2LC3-II), thereby inducing cell death in autophagy-dependent cancer cells (^4Viability) under conditions where non-malignant cells remain viable.

[6] = system: U2OS osteosarcoma cells; assay: LC3-II (autophagosome) accumulation; format: cell-based; settings: Homo sapiens, within 4 to 8 hours, read-out: Accumulate LC3-II EC50
Experimental: as §1

[7] = system: U2OS osteosarcoma cells; assay: Suppression of cell proliferation; format: cell-based; settings: Homo sapiens, 72 h, within 3 days, read-out: Inhibit Proliferation IC50
Experimental: as §1

[8] = system: U2OS osteosarcoma cells; assay: Reduction of cellular ATP levels (viability); format: cell-based; settings: Homo sapiens, 96 h, within 4 days, read-out: Inhibit Viability IC50 (cellular ATP levels)
Experimental: as §1

[9] = system: Vero E6 cells; assay: Vero E6 cell proliferation (attached cell count); format: cell-based, African Green monkey; settings: Chlorocebus sabaeus, Vero C1008, 72 h; cultured for 3 days
Experimental: (§2) FIG. 4. […] Vero E6 cells were plated at low density and then cultured overnight before adding WX8 at the concentrations indicated and then cultured for 3 days. (A) Attached cells were collected by trypsinization and counted. The fraction of cells (%) as well as the change in the total number of cells (fold change) relative to cells cultured in the presence of the WX8 vehicle control are given. (B) Attached and unattached cells were combined and stained with annexin-V to identify cells undergoing apoptosis and propidium iodide (PI) to identify dead cells that were permeable to a nuclear DNA stain. The cells were then analyzed by fluorescence activated cell sorting. Quadrant (Q) Q3 contained the unstained (live) cells. Q1 contained cells stained only with annexin-V (early apoptosis). Q2 contained cells stained with both annexin-V and PI (apoptotic dead cells). Q4 contained cells stained only with PI (necrotic dead cells). (C) Data were normalized to the fraction of live cells. Error bars indicate ±SEM. (D) Cells were first permeabilized, stained with PI and then analyzed by fluorescence activated cell sorting in order to quantify the fraction of cells with <2N DNA content. (E) The fraction of cells with <2N DNA content ±SEM.
(§3) WX8 inhibited Vero E6 cell proliferation with an IC50 of 0.4 μM (FIG. 4A). However, 100-fold higher concentrations of WX8 were required to induce cell death. […]

[10] = system: Vero E6 cells; assay: Vero E6 cell death, annexin-V / propidium iodide FACS; format: cell-based, African Green monkey; settings: Chlorocebus sabaeus, Vero C1008, 72 h; 3 days, annexin-V and propidium iodide staining; read-out: IC50 Vero E6 cell death (fraction of live cells)
Experimental: as §2, §3

[11] = system: Vero E6 cells; assay: Vero E6 loss of cellular DNA (PI FACS); format: cell-based, African Green monkey; settings: Chlorocebus sabaeus, Vero C1008, 72 h, read-out: IP50 for loss of cellular DNA
Experimental: as §2, §3

[12] = system: 'autophagy-addicted' human melanoma cells; format: cell-based
[13] = target: PIKfyve (Homo sapiens, UniProt Q9Y2I7); assay: biochemical
Experimental: (§4) Each kinase was tagged with a unique DNA sequence that allowed the amount of protein bound to the solid support to be quantified by PCR. The mean equilibrium dissociation constant (Kd) for each compound was then determined for the top three hits (PIKFYVE, PIP4K2C and MTOR) from two independent titration curves. A dissociation constant (Kd) was calculated by measuring the amount of kinase captured on the solid support as a function of the test compound concentration (nM) on a log10 scale. Mean Kd values (±range) are given for each WX8-family member. The ratios of PIP4K2C/PIKfyve and mTOR/PIKfyve indicate the relative specificity of each compound for PIKfyve.

[14] = target: T1, PIP4K2C (Homo sapiens, UniProt Q8TBX8); settings: ratio of Kd values
T1 sequence (Q8TBX8 1-421): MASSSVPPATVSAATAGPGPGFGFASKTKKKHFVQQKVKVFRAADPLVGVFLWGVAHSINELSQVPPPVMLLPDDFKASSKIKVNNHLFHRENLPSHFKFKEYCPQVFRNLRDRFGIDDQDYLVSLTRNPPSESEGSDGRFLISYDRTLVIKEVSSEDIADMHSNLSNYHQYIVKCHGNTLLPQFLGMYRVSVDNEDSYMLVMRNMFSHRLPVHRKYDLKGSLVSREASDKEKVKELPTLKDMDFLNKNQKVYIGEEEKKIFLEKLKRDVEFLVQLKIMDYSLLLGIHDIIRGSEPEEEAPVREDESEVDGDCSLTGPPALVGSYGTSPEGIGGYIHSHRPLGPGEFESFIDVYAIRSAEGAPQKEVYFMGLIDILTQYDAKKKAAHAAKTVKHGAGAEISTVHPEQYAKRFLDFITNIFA
Experimental: as §4

PIKfyve, sequence (Q9Y2I7 whole entry): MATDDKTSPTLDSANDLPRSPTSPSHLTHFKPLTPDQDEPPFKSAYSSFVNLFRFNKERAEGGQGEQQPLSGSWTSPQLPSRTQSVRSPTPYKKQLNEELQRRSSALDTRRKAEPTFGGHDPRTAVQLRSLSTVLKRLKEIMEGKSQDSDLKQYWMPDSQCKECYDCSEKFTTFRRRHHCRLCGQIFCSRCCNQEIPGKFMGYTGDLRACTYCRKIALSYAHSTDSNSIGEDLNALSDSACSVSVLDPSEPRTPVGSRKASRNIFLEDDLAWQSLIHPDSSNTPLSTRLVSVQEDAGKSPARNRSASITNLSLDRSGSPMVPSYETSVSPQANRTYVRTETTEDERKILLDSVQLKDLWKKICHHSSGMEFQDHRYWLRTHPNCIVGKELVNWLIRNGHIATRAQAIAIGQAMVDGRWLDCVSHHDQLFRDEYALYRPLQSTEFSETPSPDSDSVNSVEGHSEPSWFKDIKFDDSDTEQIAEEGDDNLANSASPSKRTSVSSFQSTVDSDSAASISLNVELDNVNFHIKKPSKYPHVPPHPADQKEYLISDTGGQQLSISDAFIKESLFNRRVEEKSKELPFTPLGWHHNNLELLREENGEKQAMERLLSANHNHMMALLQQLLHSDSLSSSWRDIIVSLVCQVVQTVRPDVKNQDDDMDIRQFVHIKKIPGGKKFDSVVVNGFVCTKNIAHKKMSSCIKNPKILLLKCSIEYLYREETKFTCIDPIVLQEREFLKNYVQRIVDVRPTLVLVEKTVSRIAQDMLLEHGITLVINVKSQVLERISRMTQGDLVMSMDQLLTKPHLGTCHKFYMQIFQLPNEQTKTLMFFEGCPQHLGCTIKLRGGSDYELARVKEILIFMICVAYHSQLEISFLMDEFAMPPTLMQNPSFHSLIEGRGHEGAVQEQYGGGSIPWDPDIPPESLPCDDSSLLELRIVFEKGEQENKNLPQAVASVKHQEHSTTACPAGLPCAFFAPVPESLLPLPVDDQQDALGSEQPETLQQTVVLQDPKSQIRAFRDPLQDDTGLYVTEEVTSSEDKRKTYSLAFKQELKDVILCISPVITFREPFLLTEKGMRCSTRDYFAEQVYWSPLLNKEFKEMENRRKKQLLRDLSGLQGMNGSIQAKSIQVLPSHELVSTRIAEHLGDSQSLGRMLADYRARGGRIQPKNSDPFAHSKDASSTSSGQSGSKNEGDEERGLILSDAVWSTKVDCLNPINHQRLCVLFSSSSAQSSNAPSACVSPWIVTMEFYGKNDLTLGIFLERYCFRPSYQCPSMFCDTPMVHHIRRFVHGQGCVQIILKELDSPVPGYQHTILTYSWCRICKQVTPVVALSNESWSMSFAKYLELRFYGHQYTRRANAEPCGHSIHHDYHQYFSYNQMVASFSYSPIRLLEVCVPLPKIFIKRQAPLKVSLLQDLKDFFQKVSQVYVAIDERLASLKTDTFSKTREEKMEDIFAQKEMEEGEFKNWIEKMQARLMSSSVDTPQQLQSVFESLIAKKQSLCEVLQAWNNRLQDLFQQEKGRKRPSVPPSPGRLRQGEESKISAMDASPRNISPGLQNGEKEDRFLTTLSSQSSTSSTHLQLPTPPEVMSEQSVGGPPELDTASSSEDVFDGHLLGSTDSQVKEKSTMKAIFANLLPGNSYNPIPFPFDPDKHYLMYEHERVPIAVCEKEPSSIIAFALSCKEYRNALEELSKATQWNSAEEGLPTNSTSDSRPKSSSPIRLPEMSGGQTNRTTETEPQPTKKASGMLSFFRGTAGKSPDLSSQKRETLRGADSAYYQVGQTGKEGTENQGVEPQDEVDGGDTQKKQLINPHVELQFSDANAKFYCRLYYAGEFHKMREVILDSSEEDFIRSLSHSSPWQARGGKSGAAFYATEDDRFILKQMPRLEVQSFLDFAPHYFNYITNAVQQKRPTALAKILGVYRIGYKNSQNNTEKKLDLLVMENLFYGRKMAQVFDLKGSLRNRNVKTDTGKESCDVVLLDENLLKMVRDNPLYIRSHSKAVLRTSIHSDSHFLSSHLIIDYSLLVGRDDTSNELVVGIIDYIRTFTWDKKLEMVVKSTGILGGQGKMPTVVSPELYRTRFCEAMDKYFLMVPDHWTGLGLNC

Row | Structure (SMILES) | accumulation of cytoplasmic vacuoles [1] | CC50/IC50 [2] | CC50 [3] [µM] | IC50 [4] [µM] | Accumulate Vacuoles EC [5] [µM] | EC50 [6] [µM] | IC50 [7] [µM] | IC50 [8] [µM] | IC50 [9] [µM] | IC50 [10] [µM] | IC50 [11] [µM] | lethality relative to chloroquine [12] [times] | Kd [13] [µM] | affinity for PIKfyve relative to PIP4K2C (PIP4K2C/PIKfyve) [14] [fold]
1 | Cc1cccc(/C=N/Nc2cc(N3CCOCC3)nc(OCCc3ccccn3)n2)c1 [Apilimod, reference compound] | rapidly accumulated cytoplasmic vacuoles | 22,027 | 33 | 0.0015 |  |  |  |  |  |  |  |  |  | 
2 | Cc1cccc(/C=N/Nc2cc(N3CCOCC3)nc(N3CCOCC3)n2)c1 [NDF] | rapidly accumulated cytoplasmic vacuoles | 52 | 26.3 | 0.499 | 0.1 | 1.5 | 1.1 | 0.42 |  |  |  |  |  | 
3 | C(=N\Nc1cc(N2CCOCC2)nc(N2CCOCC2)n1)/c1ccccc1 [WWL] | rapidly accumulated cytoplasmic vacuoles | 16 | 40.3 | 2.44 | 0.2 | 6.5 | 1.6 | 2.6 |  |  |  |  |  | 
4 | C1=Nc2ccccc2/C1=C/NNc1nc(Nc2ccccc2)nc(N2CCOCC2)n1 [WX8] | rapidly accumulated cytoplasmic vacuoles | 245 | 42.3 | 0.172 | 0.01 | 0.3 | 0.2 | 0.35 | 0.4 | 70 | 60 | 100 | < 0.001 | 366
5 | CCc1ccc(Nc2nc(N3CCOCC3)nc(N3CCOCC3)n2)cc1 [XB6] |  |  |  |  | 2 | > 10 | 7.4 | 5.3 |  |  |  |  |  | 
6 | Fc1ccc(Nc2nc(N3CCOCC3)nc(N3CCOCC3)n2)cc1Cl [XBA] |  |  |  |  | 4 | 7.5 | 4 | > 10 |  |  |  |  |  | 
